What all share (type): biochemical
One assay has as its target T1, human FAK (Homo sapiens, UniProt Q05397).
T1 construct: The complete cDNA of human FAK; made in house; host or cells: baculovirus expression system (vector pFastBac HTc)
Nature of the assay: FAK autophosphorylation inhibition, time resolved fluorescence (HTRF) assay. The settings on record: 10 μM (values without asterisk); read-out: FAK % inhib at 10 μM. The method, boiled down:
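Autophosphorylation was detected by europium-cryptate anti-pTyr and XL665 anti-His energy transfer, percent inhibition from the 665/620 ratio relative to no-compound wells. Enzyme: His-FAK full length, 6.6 µg/ml, incubated 1 h at 37 °C, pH 7.2, 15 µM ATP.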
On the technique in general: TR-FRET usually uses a lanthanide donor and a delayed reading to cut background.

In a further assay the target is T2, human KDR enzyme (Homo sapiens, UniProt P35968).
T2 construct: The cytoplasmic domain of the human KDR enzyme; GST; made in house; host or cells: SF21 insect cells (baculovirus)
T2 sequence (P35968 786-1356 limits assumed): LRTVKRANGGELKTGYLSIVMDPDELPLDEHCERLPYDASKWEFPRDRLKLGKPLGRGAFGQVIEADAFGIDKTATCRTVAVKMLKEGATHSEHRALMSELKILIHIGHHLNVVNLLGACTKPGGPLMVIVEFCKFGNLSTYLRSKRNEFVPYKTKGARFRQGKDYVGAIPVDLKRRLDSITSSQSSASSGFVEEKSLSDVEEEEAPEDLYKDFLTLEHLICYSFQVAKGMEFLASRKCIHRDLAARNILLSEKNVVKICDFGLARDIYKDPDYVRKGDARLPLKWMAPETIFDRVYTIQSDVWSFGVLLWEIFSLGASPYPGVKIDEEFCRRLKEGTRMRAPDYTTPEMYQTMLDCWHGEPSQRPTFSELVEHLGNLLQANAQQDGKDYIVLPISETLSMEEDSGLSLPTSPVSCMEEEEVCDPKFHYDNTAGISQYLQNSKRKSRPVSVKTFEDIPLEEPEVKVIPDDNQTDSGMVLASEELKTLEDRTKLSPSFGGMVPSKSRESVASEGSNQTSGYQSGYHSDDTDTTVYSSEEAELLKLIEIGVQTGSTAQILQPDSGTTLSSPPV
Put plainly: KDR substrate (PLCγ) phosphorylation, scintillation assay. The settings on record: 10 μM; read-out: KDR % inhib at 10 μM. The essentials: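 Values are percent inhibition relative to the compound-free control, read by scintillation counting of 33P incorporation after EDTA stop. Baculovirus/SF21-expressed GST-KDR cytoplasmic domain (100 ng) acted for 1 h at 37 °C in pH 7.2 MOPS kinase buffer. The substrate was GST-PLCγ SH2-SH3 (2 μg), added with γ33P-ATP and 2 μM unlabeled ATP.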

The target in assay [1] is T3, human IGF1R cytoplasmic domain (Homo sapiens, UniProt P08069).
T3 construct: The human IGF1R cytoplasmic domain was cloned; made in house; host or cells: SF21 insect cells (baculovirus)
T3 sequence (P08069 960-1367 limits assumed): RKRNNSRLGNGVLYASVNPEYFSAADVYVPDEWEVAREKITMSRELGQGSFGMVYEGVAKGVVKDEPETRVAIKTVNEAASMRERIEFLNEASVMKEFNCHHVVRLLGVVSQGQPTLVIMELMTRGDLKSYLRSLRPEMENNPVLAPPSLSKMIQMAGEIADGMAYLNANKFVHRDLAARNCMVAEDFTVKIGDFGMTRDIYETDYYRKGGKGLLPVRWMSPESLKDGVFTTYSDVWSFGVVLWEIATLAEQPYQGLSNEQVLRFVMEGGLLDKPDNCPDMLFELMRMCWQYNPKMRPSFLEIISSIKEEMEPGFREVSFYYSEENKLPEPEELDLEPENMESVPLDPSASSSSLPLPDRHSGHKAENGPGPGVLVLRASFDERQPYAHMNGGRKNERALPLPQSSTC
Put plainly: IGF1R autophosphorylation inhibition, time resolved fluorescence (HTRF) assay. The settings on record: 10 μM; read-out: IGF1R % inhib at 10 μM. The essentials: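 GST-tagged human IGF1R cytoplasmic domain from SF21 cells incubated with compound in 50 mM Hepes pH 7.5, 5 mM MnCl2, 50 mM NaCl, […] ATP. Autophosphorylation detected by HTRF (Eu-K anti-phosphotyrosine, XL665 anti-GST) after EDTA/KF stop; percentage inhibition versus no-compound control.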

T1 sequence (Q05397 whole entry): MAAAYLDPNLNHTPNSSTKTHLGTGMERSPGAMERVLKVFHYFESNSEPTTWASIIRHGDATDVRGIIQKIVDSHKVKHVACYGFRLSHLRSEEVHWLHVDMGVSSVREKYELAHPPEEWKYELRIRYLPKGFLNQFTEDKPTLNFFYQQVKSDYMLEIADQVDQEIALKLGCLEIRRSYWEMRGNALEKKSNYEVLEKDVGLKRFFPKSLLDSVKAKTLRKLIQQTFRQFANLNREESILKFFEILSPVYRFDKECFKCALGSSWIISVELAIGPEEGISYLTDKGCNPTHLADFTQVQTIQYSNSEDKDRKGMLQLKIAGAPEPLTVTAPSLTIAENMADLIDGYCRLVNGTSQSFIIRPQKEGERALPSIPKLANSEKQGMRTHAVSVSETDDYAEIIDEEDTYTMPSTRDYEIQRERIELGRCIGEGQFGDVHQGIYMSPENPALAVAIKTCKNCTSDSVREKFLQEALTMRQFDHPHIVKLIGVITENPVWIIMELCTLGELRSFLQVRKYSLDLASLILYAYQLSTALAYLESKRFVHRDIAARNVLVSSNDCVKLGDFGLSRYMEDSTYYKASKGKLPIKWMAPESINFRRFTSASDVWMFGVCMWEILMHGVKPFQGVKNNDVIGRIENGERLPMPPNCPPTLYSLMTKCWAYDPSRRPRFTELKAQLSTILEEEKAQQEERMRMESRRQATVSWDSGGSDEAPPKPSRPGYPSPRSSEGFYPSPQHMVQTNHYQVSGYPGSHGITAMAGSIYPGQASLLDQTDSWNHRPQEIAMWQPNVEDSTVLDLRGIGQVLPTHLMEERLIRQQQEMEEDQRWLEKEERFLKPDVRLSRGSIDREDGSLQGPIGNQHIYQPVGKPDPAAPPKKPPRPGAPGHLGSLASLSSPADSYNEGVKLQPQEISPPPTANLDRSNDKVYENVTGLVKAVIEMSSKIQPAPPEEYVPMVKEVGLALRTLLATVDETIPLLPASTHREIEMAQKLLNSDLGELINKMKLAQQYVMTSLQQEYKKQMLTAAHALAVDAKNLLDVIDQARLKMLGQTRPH

With `O=S(=O)(Nc1ccc2[nH]nc(-c3ccccc3)c2c1)c1ccc(Cl)s1` [Example 135, 5-Chloro-N-(3-phenyl-1H-indazol-5-yl)thiophene-2-sulfonamide], the inhibition at 10 µM was 50% on human FAK, 91% at human KDR enzyme and 65% in assay [1].
The corresponding values for `N#Cc1cccc(S(=O)(=O)Nc2ccc3[nH]nc(-c4ccccc4)c3c2)c1` [Example 154, 3-Cyano-N-(3-phenyl-1H-indazol-5-yl)-benzenesulfonamide] are 54%, 96% and 75%.
The matching figures for `Nc1ccc(S(=O)(=O)Nc2ccc3[nH]nc(-c4ccccc4)c3c2)cc1` [Example 94, 4-Amino-N-(3-phenyl-1H-indazol-5-yl)benzenesulfonamide]: 36%, 88% and 70%.
As for `Nc1n[nH]c2ccc(NS(=O)(=O)c3cc(F)cc(F)c3)cc12` [Example 42, N-(3-Amino-1H-indazol-5-yl)-3,5-difluorobenzenesulfonamide], the inhibition at 10 µM was found to be 100% on human FAK, 25% on human KDR enzyme and 0% in assay [1].
The corresponding values for `O=S(=O)(Nc1ccc2[nH]nc(-c3ccccc3)c2c1)c1ccccc1C(F)(F)F` [Example 109, N-(3-Phenyl-1H-indazol-5-yl)-2-trifluoromethylbenzene-sulfonamide] are 61%, 91% and 81%.
The matching figures for `O=S(=O)(Nc1ccc2[nH]nc(-c3ccccc3)c2c1)c1cc(F)cc(F)c1` [Example 158, 3,5-Difluoro-N-(3-phenyl-1H-indazol-5-yl)-benzenesulfonamide]: 95%, 96% and 68%.
The matching figures for `CS(=O)(=O)c1ccccc1S(=O)(=O)Nc1ccc2[nH]nc(-c3cc4ccccc4s3)c2c1` [Example 65, N-(3-Benzo[b]thiophen-2-yl-1H-indazol-5-yl)-2-methylsulfonylbenzenesulfonamide]: 86%, 73% and 63%.
With `COC(=O)/C=C/c1n[nH]c2ccc(NS(=O)(=O)c3ccccc3S(C)(=O)=O)cc12` [Example 79, Methyl (E)-3-[5(2-methylsulfonylbenzenesulfonylamino)-1H-indazol-3-yl]-acrylate], the inhibition at 10 µM turned out to be 98% at human FAK, 50% at human KDR enzyme and 37% in assay [1].
The corresponding values for `Cc1cccc(S(=O)(=O)Nc2ccc3[nH]nc(-c4ccccc4)c3c2)c1` [Example 138, 3-Methyl-N-(3-phenyl-1H-indazol-5-yl)-benzenesulfonamide] are 47%, 92% and 72%.
As to `CS(=O)(=O)c1ccccc1S(=O)(=O)Nc1ccc2[nH]nc(NCc3ccccc3)c2c1` [Example 36, N-(3-Benzylamino-1H-indazol-5-yl)-2-methylsulfonylbenzenesulfonamide], the inhibition at 10 µM was determined as 92% on human FAK, 23% on human KDR enzyme and 92% in assay [1].
For `O=S(=O)(Nc1ccc2[nH]nc(-c3ccccc3)c2c1)c1ccccc1F` [Example 134, 2-Fluoro-N-(3-phenyl-1H-indazol-5-yl)-benzenesulfonamide], the inhibition at 10 µM on human FAK was found to be 67%; at human KDR enzyme, 90%; in assay [1] it was 81%.
The corresponding values for `CS(=O)(=O)c1ccccc1S(=O)(=O)Nc1ccc2[nH]nc(-c3cccc(N)c3)c2c1` [Example 62, N-[3-(3-Aminophenyl)-1H-indazol-5-yl]-2-methylsulfonylbenzenesulfonamide] are 99%, 74% and 88%.
For `CS(=O)(=O)c1ccccc1S(=O)(=O)Nc1ccc2[nH]nc(Sc3ccccc3)c2c1` [Example 88, 2-Methylsulfonyl-N-(3-phenylsulfanyl-1H-indazol-5-yl)-benzenesulfonamide], the values for the inhibition at 10 µM (on human FAK; on human KDR enzyme; in assay [1]) were 21%, 25% and 82%, respectively.
The corresponding values for `O=S(=O)(Nc1ccc2[nH]nc(-c3ccccc3)c2c1)c1ccccc1` [Example 112, N-(3-Phenyl-1H-indazol-5-yl)benzenesulfonamide] are 75%, 93% and 84%.
The matching figures for `O=S(=O)(Nc1ccc2[nH]nc(-c3ccccc3)c2c1)c1ccc(F)cc1` [Example 117, 4-Fluoro-N-(3-phenyl-1H-indazol-5-yl)-benzenesulfonamide]: 53%, 93% and 56%.
The matching figures for `Cc1ccccc1S(=O)(=O)Nc1ccc2[nH]nc(-c3ccccc3)c2c1` [Example 132, 2-Methyl-N-(3-phenyl-1H-indazol-5-yl)-benzenesulfonamide]: 51%, 96% and 77%.

The values are drawn from patent US6858638B2, “Substituted indazoles, compositions containing them, method of production and use” (Aventis Pharma S.A., priority 2002, dated 2005).
